Data as given in EP0089860A1, “Levogyrous isomer of mequitazine, process for its preparation and pharmaceutical preparations containing it” (priority 1982, dated 1983).

Tested on: souris
Experiment: Acute toxicity in the mouse
Format: in vivo
Conditions: comparison of composé (Ia) and Méquitazine

Row | SMILES | toxicité aiguë
1 | c1ccc2c(c1)Sc1ccccc1N2C[C@@H]1CN2CCC1CC2 [Composé (Ia), [(aza-1 bicyclo(2,2,2)octyl-3 (S))méthyl]-10 10H-phénothiazine] | sensiblement identiques
2 | c1ccc2c(c1)Sc1ccccc1N2CC1CN2CCC1CC2 (racemic) [Méquitazine racémique, [(aza-1 bicyclo(2,2,2)octyl-3)méthyl]-10 10H-phénothiazine] | sensiblement identiques
